PMC8819633 (Journal of medicinal chemistry, 2021)

Tests used:
[1] = system: total AKT (T-AKT) and phosphorylated AKT (P-AKT (S473)); test: Western blot of AKT degradation in BT474 cells; format: cell-based, human; settings: for T-AKT and P-AKT protein degradation (western blot): 24 h, 1, 5 and 10 μM (12-13: 1, 3 and 10 μM); for hook effect in AKT degradation: higher concentrations (up to 10 μM); for time course of T-AKT and P-AKT degradation: indicated times; for P-AKT (S473) protein level (western blot): GDC-0068 at 1 μM; for T-AKT protein level (western blot): controls at 1 μM
[2] = system: P-PRAS40 (T246) and P-S6 (S240/244); test: Western blot of downstream signaling inhibition in BT474 cells; format: cell-based, human; settings: for inhibition of downstream signaling, P-PRAS40 and P-S6: compared with GDC-0068 (1 μM)
T-AKT and P-AKT (S473) = test: Western blot of AKT degradation in PC3 cells; format: cell-based, human; settings: for T-AKT and P-AKT degradation (western blot): PC3 cells, 1 μM, 24 h
T-AKT and P-AKT = test: Competition; format: cell-based, human; settings: BT474, then degrader 22 h
PC3 cells = test: Cell proliferation assay; format: cell-based, human; settings: 5 days
MDA-MB-468 cells [3] = test: Cell proliferation assay; format: cell-based, human; settings: 5 days
MDA-MB-468 cells [4] = test: Apoptosis assay; format: cell-based, human; settings: MDA-MB-468 cells (Figure S5)
[5] = format: in vivo; settings: mice, single IP injection, 50 mg/kg
[6] = 50 mg/kg
[7] = system: P-PRAS40 (T246) and P-S6 (S240/244); test: Western blot of downstream signaling inhibition in PC3 cells; format: cell-based, human; settings: 1 μM, 24 h, vs GSK690693

Cc1ncsc1-c1ccc(CNC(=O)[C@@H]2C[C@@H](O)CN2C(=O)[C@@H](NC(=O)CCCCCCCCCCNC(=O)CCNC[C@@H](C(=O)N2CCN(c3ncnc4c3[C@H](C)C[C@H]4O)CC2)c2ccc(Cl)cc2)C(C)(C)C)cc1 [Compound 11, (2S,4R)-1-((S)-2-(11-(3-(((S)-2-(4-Chlorophenyl)-3-(4-((5R,7R)-7-hydroxy-5-methyl-6,7-dihydro-5H-cyclopenta[d]pyrimidin-4-yl)-piperazin-1-yl)-3-oxopropyl)amino)propanamido)-undecanamido)-3,3-dimethylbutanoyl)-4-hydroxy-N-(4-(4-methyl-thiazol-5-yl)benzyl)pyrrolidine-2-carboxamide]
T-AKT and P-AKT protein degradation (western blot) [1]: near-complete degradation of T-AKT and P-AKT at 1 μM | hook effect in AKT degradation ([1]; 24 h): at 5 and 10 μM, a ″hook effect″ was observed | inhibition of downstream signaling, P-PRAS40 and P-S6 ([2]; 24 h): less effective than the parent inhibitor GDC-0068

Cc1ncsc1-c1ccc([C@H](C)NC(=O)[C@@H]2C[C@@H](O)CN2C(=O)[C@@H](NC(=O)CCCCCCCCCCNC(=O)CCNC[C@@H](C(=O)N2CCN(c3ncnc4c3[C@H](C)C[C@H]4O)CC2)c2ccc(Cl)cc2)C(C)(C)C)cc1 [Compound 12, (2S,4R)-1-((S)-2-(11-(3-(((S)-2-(4-Chlorophenyl)-3-(4-((5R,7R)-7-hydroxy-5-methyl-6,7-dihydro-5H-cyclopenta[d]pyrimidin-4-yl)-piperazin-1-yl)-3-oxopropyl)amino)propanamido)-undecanamido)-3,3-dimethylbutanoyl)-4-hydroxy-N-((S)-1-(4-(4-methylthiazol-5-yl)phenyl)ethyl)pyrrolidine-2-carboxamide]
T-AKT and P-AKT protein degradation (western blot) [1]: remarkable effects on degrading T-AKT and P-AKT | inhibition of downstream signaling, P-PRAS40 and P-S6 ([2]; 24 h): more profound inhibition of P-PRAS40 and P-S6 than 11

Cc1ncsc1-c1ccc([C@H](C)NC(=O)[C@@H]2C[C@@H](O)CN2C(=O)[C@@H](NC(=O)CCCCCCCCCCC(=O)NCCNC[C@@H](C(=O)N2CCN(c3ncnc4c3[C@H](C)C[C@H]4O)CC2)c2ccc(Cl)cc2)C(C)(C)C)cc1 [Compound 13, N^1-(2-(((S)-2-(4-Chlorophenyl)-3-(4-((5R,7R)-7-hydroxy-5-methyl-6,7-dihydro-5H-cyclopenta[d]pyrimidin-4-yl)piperazin-1-yl)-3-oxopropyl)amino)ethyl)-N^12-((S)-1-((2S,4R)-4-hydroxy-2-(((S)-1-(4-(4-methylthiazol-5-yl)phenyl)ethyl)carbamoyl)pyrrolidin-1-yl)-3,3-dimethyl-1-oxobutan-2-yl)dodecanediamide]
duration of T-AKT and P-AKT degradation ([1]; 1 μM): at least 24 h | time course of T-AKT and P-AKT degradation ([1]; 1 μM): Obvious degradation occurred at 4 h, and near-complete degradation was achieved at 8 h | T-AKT and P-AKT protein degradation (western blot) [1]: remarkable effects on degrading T-AKT and P-AKT | hook effect in AKT degradation ([1]; 24 h): less ″hook effect″ than 12 | extent of T-AKT degradation in concentration-response ([1]; 24 h, indicated concentrations): near-complete depletion of T-AKT at 1 μM | hook effect in concentration-response ([1]; concentrations up to 10 μM): No ″hook effect″ was observed | kinetics of downstream signaling inhibition ([2]; 1 μM, vs GDC-0068): not as rapid as that induced by GDC-0068 | inhibition of downstream signaling, P-PRAS40 and P-S6 ([2]; 24 h): more profound inhibition of P-PRAS40 and P-S6 than 11 | AKT degradation, concentration-response (T-AKT and P-AKT (S473)): effectively induced AKT degradation in a concentration-dependent manner | effect of GDC-0068 pretreatment on degrader-induced AKT degradation (T-AKT and P-AKT; 2 h pretreatment with GDC-0068 (1 μM)): blocked the AKT degradation induced by 13 | effect of MG132 pretreatment on degrader-induced AKT degradation (T-AKT and P-AKT; 2 h pretreatment with MG132 (10 μM)): completely prevented 13-mediated degradation of T-AKT and P-AKT and inhibition of P-PRAS40 | effect of MLN4924 pretreatment on degrader-induced AKT degradation (T-AKT and P-AKT; 2 h pretreatment with MLN4924 (1 μM)): completely prevented 13-mediated degradation of T-AKT and P-AKT and inhibition of P-PRAS40 | growth inhibition (PC3 cells): comparable potencies to GDC-0068 and INY-03–041 | growth inhibition (MDA-MB-468 cells [3]): comparable potencies to GDC-0068 and INY-03–041 | apoptosis induced (MDA-MB-468 cells [4]): ≤ 3% | tolerability [5]: well tolerated | time of Cmax ([6]; male Swiss albino mice, single IP injection): 2 h | plasma concentrations over 8 h ([6]; mouse, in vivo, ip): above 3 μM

C[C@@H]1C[C@@H](O)c2ncnc(N3CCN(C(=O)[C@H](CNCCNC(=O)CCCCCCCCNc4cccc5c4C(=O)N(C4CCC(=O)NC4=O)C5=O)c4ccc(Cl)cc4)CC3)c21 (stereo partly drawn) [Compound 26, N-(2-(((S)-2-(4-chlorophenyl)-3-(4-((5R,7R)-7-hydroxy-5-methyl-6,7-dihydro-5H-cyclopenta[d]pyrimidin-4-yl)piperazin-1-yl)-3-oxopropyl)amino)ethyl)-9-((2-(2,6-dioxopiperidin-3-yl)-1,3-dioxoisoindolin-4-yl)amino)nonanamide]
P-AKT (S473) protein level (western blot) ([1]; 24 h): did not reduce the P-AKT level | T-AKT protein level (western blot) ([1]; 24 h): partially degraded T-AKT | inhibition of P-PRAS40 ([2]; 1 μM, 24 h): as effectively as GDC-0068

CCn1c(-c2nonc2N)nc2c(C#CC(C)(C)O)ncc(OCCCNCCCC(=O)NCCCCCCCCCCC(=O)N[C@H](C(=O)N3C[C@H](O)C[C@H]3C(=O)NCc3ccc(-c4scnc4C)cc3)C(C)(C)C)c21 [Compound 48, (2S,4R)-1-((S)-2-(11-(4-((3-((2-(4-Amino-1,2,5-oxadiazol-3-yl)-1-ethyl-4-(3-hydroxy-3-methylbut-1-yn-1-yl)-1H-imidazo[4,5-c]-pyridin-7-yl)oxy)propyl)amino)butanamido)undecanamido)-3,3-dimethylbutanoyl)-4-hydroxy-N-(4-(4-methylthiazol-5-yl)benzyl)-pyrrolidine-2-carboxamide]
T-AKT and P-AKT degradation (western blot) (T-AKT and P-AKT (S473)): the most effective in degrading T-AKT and P-AKT | inhibition of P-PRAS40 [7]: less effective than GSK690693 in inhibiting P-PRAS40

CCn1c(-c2nonc2N)nc2c(C#CC(C)(C)O)ncc(OCCCNCCCC(=O)NCCCCCCCCNc3cccc4c3C(=O)N(C3CCC(=O)NC3=O)C4=O)c21 (stereo not shown) [Compound 60, 4-((3-((2-(4-Amino-1,2,5-oxadiazol-3-yl)-1-ethyl-4-(3-hydroxy-3-methylbut-1-yn-1-yl)-1H-imidazo[4,5-c]pyridin-7-yl)oxy)propyl)-amino)-N-(8-((2-(2,6-dioxopiperidin-3-yl)-1,3-dioxoisoindolin-4-yl)-amino)octyl)butanamide]
T-AKT and P-AKT degradation (western blot) (T-AKT and P-AKT (S473)): the most effective in degrading T-AKT and P-AKT | inhibition of P-PRAS40 [7]: less effective than GSK690693 in inhibiting P-PRAS40

CC(C)NC[C@@H](C(=O)N1CCN(c2ncnc3c2[C@H](C)C[C@H]3O)CC1)c1ccc(Cl)cc1 [GDC-0068, reference compound]
time course of T-AKT and P-AKT degradation ([1]; 1 μM): no effect on the T-AKT protein level and increased the P-AKT protein level | P-AKT (S473) protein level (western blot) ([1]; 24 h): AKT hyperphosphorylation | T-AKT protein level (western blot) ([1]; 24 h): no detectable effect on the T-AKT protein level | inhibition of downstream signaling, P-PRAS40 and P-S6 ([2]; 24 h): effectively inhibited downstream signaling
